In PubChem BioAssay (NCI) one finds TGI data, which are given here for eleven compounds.

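Growth conditions: 96-well plates. Treatment: test compound, 48 hours, 5 concentrations. Analysis: linear interpolation between bracketing concentrations; unreached endpoints set to highest concentration. TGI marks complete inhibition of growth.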 A value given as a limit tells only on which side of the number the result lay.

Some test systems named below: SF-539 CNS; A549 NSCLC; NCI-H522 lung; SN12C renal; CCRF-CEM leukemia; HL-60(TB) leukemia; EKVX NSCLC; T-47D breast; RXF 393 renal; A498 renal; UACC-257 melanoma; NCI/ADR-RES ovarian; BT-549 breast; UO-31 renal; MALME-3M melanoma; ACHN renal; M14 melanoma; MOLT-4 leukemia; OVCAR-5 ovarian; HOP-62 NSCLC.
Common to all, as to experiment: inhibition of tumour cell growth, NCI panel, 48 h

On to `CNC(=O)C(C)NC(=O)C(Cc1ccccc1)NC(=O)OC(C)(C)C` (configuration not stated), for which the TGI in the experiment on SF-539 CNS, in the experiment with A549 NSCLC, with NCI-H522 lung, with SN12C renal, in the experiment with CCRF-CEM leukemia and in the experiment on HL-60(TB) leukemia was greater than 100 µM throughout. Besides, the TGI in the experiment with EKVX NSCLC, in the experiment with T-47D breast, in the experiment on RXF 393 renal, in the experiment with A498 renal, in the experiment with UACC-257 melanoma and in the experiment on NCI/ADR-RES ovarian was greater than 100 µM throughout. The TGI with BT-549 breast, in the experiment with UO-31 renal, in the experiment on MALME-3M melanoma, with ACHN renal, in the experiment with M14 melanoma and in the experiment on MOLT-4 leukemia was greater than 100 µM each time. Besides, the TGI with OVCAR-5 ovarian and in the experiment with HOP-62 NSCLC was greater than 100 µM in each case.
For the compound `CC1=C(C#N)C(=O)N(/N=C/c2ccc(Cl)cc2)C(=O)/C1=c1\o/c(=C2/C(=O)N(/N=C/c3ccc(Cl)cc3)C(=O)C(C#N)=C2C)c2nccnc12`, the TGI with SF-539 CNS, in the experiment on A549 NSCLC, in the experiment with NCI-H522 lung, in the experiment with SN12C renal, in the experiment on CCRF-CEM leukemia and in the experiment on HL-60(TB) leukemia was greater than 100 µM in each case. In addition, the TGI with EKVX NSCLC, in the experiment with T-47D breast, in the experiment on RXF 393 renal, with A498 renal, with UACC-257 melanoma and with NCI/ADR-RES ovarian was greater than 100 µM in each case. The TGI with BT-549 breast, with UO-31 renal, in the experiment with MALME-3M melanoma, with ACHN renal, in the experiment with M14 melanoma and in the experiment with MOLT-4 leukemia was greater than 100 µM each time. In the experiment with OVCAR-5 ovarian, this compound displayed a TGI greater than 100 µM.
In the case of `O=c1oc2ccccc2c(O)c1C(c1ccc2ccccc2c1)c1c(O)c2ccccc2oc1=O`, the TGI in the experiment with SF-539 CNS was 68.9 µM; with A549 NSCLC, greater than 100 µM; in the experiment on NCI-H522 lung it was 48.5 µM; in the experiment with SN12C renal, 45.3 µM; in the experiment with CCRF-CEM leukemia, greater than 100 µM; with HL-60(TB) leukemia, 75.5 µM. The TGI is greater than 100 µM with EKVX NSCLC; greater than 100 µM in the experiment on T-47D breast; greater than 100 µM with RXF 393 renal; greater than 100 µM in the experiment on A498 renal; greater than 100 µM in the experiment on UACC-257 melanoma; 38.5 µM in the experiment with NCI/ADR-RES ovarian. In addition, the TGI in the experiment with BT-549 breast was 60.8 µM; in the experiment with UO-31 renal, 35.4 µM; in the experiment with MALME-3M melanoma, 57.5 µM; with ACHN renal it was 41.7 µM; with M14 melanoma, 73.2 µM; in the experiment on MOLT-4 leukemia, 55.1 µM. In addition, the TGI is 62 µM in the experiment on OVCAR-5 ovarian and greater than 100 µM with HOP-62 NSCLC.
For `C=CCN1C(=O)N/C(=C\c2ccc(Cl)cc2)C1=O`, the TGI in the experiment on SF-539 CNS, in the experiment on A549 NSCLC, in the experiment with NCI-H522 lung, in the experiment with SN12C renal, in the experiment with CCRF-CEM leukemia and in the experiment on HL-60(TB) leukemia was greater than 100 µM throughout. For the same compound, the TGI in the experiment on EKVX NSCLC, with T-47D breast, with RXF 393 renal, with A498 renal, in the experiment with UACC-257 melanoma and in the experiment on NCI/ADR-RES ovarian was greater than 100 µM each time. In addition, the TGI in the experiment on BT-549 breast, in the experiment with MALME-3M melanoma, in the experiment with ACHN renal, in the experiment with M14 melanoma, in the experiment on MOLT-4 leukemia and in the experiment with OVCAR-5 ovarian was greater than 100 µM throughout. Further, the TGI in the experiment with HOP-62 NSCLC was greater than 100 µM.
`c1ccc2c(c1)n1c(N3CCOCC3)[n+]3ccccc3c1c1c3cccc[n+]3c(N3CCOCC3)n21`: the TGI with SF-539 CNS, with A549 NSCLC, in the experiment on NCI-H522 lung, in the experiment with SN12C renal, in the experiment on CCRF-CEM leukemia and in the experiment with HL-60(TB) leukemia was greater than 100 µM in each case. Moreover, the TGI with EKVX NSCLC, in the experiment with T-47D breast, in the experiment on RXF 393 renal, with A498 renal, in the experiment with UACC-257 melanoma and in the experiment with NCI/ADR-RES ovarian was greater than 100 µM throughout. For the same compound, the TGI in the experiment on BT-549 breast, in the experiment with MALME-3M melanoma, with ACHN renal, in the experiment on M14 melanoma, in the experiment with MOLT-4 leukemia and with OVCAR-5 ovarian was greater than 100 µM in each case.
As to `COc1c(C(=O)O)cccc1-c1cccc(C(=O)NCCN(CCNC(=O)c2cccc(-c3cccc(C(=O)O)c3OC)c2OC)CCNC(=O)c2cccc(-c3cccc(C(=O)O)c3OC)c2OC)c1OC`, the TGI is greater than 100 µM with SF-539 CNS; greater than 100 µM in the experiment on A549 NSCLC; 75.8 µM in the experiment on NCI-H522 lung; 89.9 µM in the experiment with SN12C renal; greater than 100 µM in the experiment on CCRF-CEM leukemia; 65.4 µM in the experiment with HL-60(TB) leukemia. Besides, the TGI was greater than 100 µM in the experiment on EKVX NSCLC; greater than 100 µM with T-47D breast; greater than 100 µM with RXF 393 renal; 96.2 µM in the experiment on A498 renal; greater than 100 µM with UACC-257 melanoma; greater than 100 µM in the experiment with NCI/ADR-RES ovarian. In addition, the TGI with BT-549 breast is greater than 100 µM; with UO-31 renal, greater than 100 µM; in the experiment on MALME-3M melanoma, 88.1 µM; in the experiment on ACHN renal, greater than 100 µM; with MOLT-4 leukemia, greater than 100 µM; in the experiment on OVCAR-5 ovarian it was greater than 100 µM. For the same compound, the TGI with HOP-62 NSCLC is greater than 100 µM.
Regarding `CC(=O)NNc1nc(C)c(C(/C=C/c2ccccc2O)=N/NC(=O)c2ccncc2)s1`, the TGI with SF-539 CNS, in the experiment with A549 NSCLC, in the experiment on NCI-H522 lung, in the experiment with SN12C renal, in the experiment on CCRF-CEM leukemia and in the experiment on HL-60(TB) leukemia was greater than 100 µM each time. Also, the TGI in the experiment on EKVX NSCLC, with T-47D breast, in the experiment on RXF 393 renal, in the experiment on A498 renal, in the experiment with UACC-257 melanoma and in the experiment with NCI/ADR-RES ovarian was greater than 100 µM each time. For the same compound, the TGI with BT-549 breast, with UO-31 renal, with MALME-3M melanoma, in the experiment with ACHN renal, in the experiment with M14 melanoma and in the experiment with MOLT-4 leukemia was greater than 100 µM each time. Also, the TGI in the experiment with OVCAR-5 ovarian and in the experiment with HOP-62 NSCLC was greater than 100 µM each time.
Consider `COc1c(C(CC(C)C)OC(C)=O)ccc2c1C(=O)OCc1cc(C)cc(O)c1O2` (configuration not stated), for which the TGI was 32.9 µM in the experiment with SF-539 CNS; 25.8 µM in the experiment with A549 NSCLC; 26.2 µM with NCI-H522 lung; 27.2 µM in the experiment on SN12C renal; greater than 100 µM in the experiment with CCRF-CEM leukemia; greater than 100 µM in the experiment on HL-60(TB) leukemia. In addition, the TGI was found to be 24.1 µM in the experiment with EKVX NSCLC; 23.6 µM with T-47D breast; 34 µM in the experiment on RXF 393 renal; 34.7 µM in the experiment on A498 renal; 21.6 µM with UACC-257 melanoma; 32.2 µM in the experiment on NCI/ADR-RES ovarian. Further, the TGI in the experiment with BT-549 breast was 30 µM; in the experiment on UO-31 renal it was 19.7 µM; in the experiment with MALME-3M melanoma it was 29.8 µM; in the experiment on ACHN renal, 23.2 µM; with M14 melanoma it was 31.3 µM; in the experiment on MOLT-4 leukemia, greater than 100 µM. The TGI is 28.4 µM in the experiment on OVCAR-5 ovarian and 32.8 µM with HOP-62 NSCLC.
With `Cc1cc2c(cc1Cl)SC(NNC(=O)c1ccncc1)=NS2(=O)=O`, the TGI in the experiment on SF-539 CNS, with A549 NSCLC, in the experiment on NCI-H522 lung, in the experiment on SN12C renal, with CCRF-CEM leukemia and in the experiment on HL-60(TB) leukemia was greater than 10 µM throughout. The TGI in the experiment with EKVX NSCLC, in the experiment with T-47D breast, in the experiment with RXF 393 renal, in the experiment with A498 renal, with UACC-257 melanoma and with NCI/ADR-RES ovarian was greater than 10 µM each time. Moreover, the TGI in the experiment with BT-549 breast, with MALME-3M melanoma, with ACHN renal, in the experiment on M14 melanoma, in the experiment with MOLT-4 leukemia and with OVCAR-5 ovarian was greater than 10 µM throughout. Besides, the TGI in the experiment on HOP-62 NSCLC was greater than 10 µM.
On to `COC(=O)C(Cc1ccccc1)C(=O)NC(CNC(=O)OCc1ccccc1)C(=O)OCc1ccccc1` (configuration not stated), for which the TGI in the experiment on SF-539 CNS is greater than 100 µM; in the experiment with NCI-H522 lung, 72.3 µM; in the experiment on SN12C renal it was greater than 100 µM; in the experiment with CCRF-CEM leukemia, 48.9 µM; with HL-60(TB) leukemia, greater than 67.9 µM; in the experiment on EKVX NSCLC, greater than 100 µM. In addition, the TGI in the experiment with T-47D breast is greater than 100 µM; in the experiment on RXF 393 renal, 67.3 µM; in the experiment on A498 renal, greater than 81.4 µM; in the experiment with UACC-257 melanoma it was 34.7 µM; in the experiment with NCI/ADR-RES ovarian, greater than 100 µM; in the experiment on BT-549 breast, greater than 100 µM. Besides, the TGI in the experiment on UO-31 renal is greater than 94.4 µM; in the experiment on MALME-3M melanoma it was 43.2 µM; with ACHN renal it was greater than 100 µM; in the experiment with M14 melanoma it was 30.4 µM; with MOLT-4 leukemia, 43.7 µM; in the experiment on OVCAR-5 ovarian, greater than 100 µM. The compound also returned a TGI in the experiment with HOP-62 NSCLC greater than 100 µM.
With `COc1ccccc1NC(=S)Nc1cccc(C)n1`, the TGI in the experiment with SF-539 CNS was greater than 100 µM; in the experiment on A549 NSCLC, greater than 100 µM; in the experiment with NCI-H522 lung it was 45.9 µM; with SN12C renal it was greater than 100 µM; in the experiment with CCRF-CEM leukemia it was greater than 100 µM; in the experiment on HL-60(TB) leukemia, greater than 100 µM. Besides, the TGI in the experiment with EKVX NSCLC, in the experiment on T-47D breast, in the experiment on RXF 393 renal, in the experiment on A498 renal, in the experiment on UACC-257 melanoma and with NCI/ADR-RES ovarian was greater than 100 µM each time. Moreover, the TGI in the experiment on BT-549 breast, in the experiment with UO-31 renal, with MALME-3M melanoma, in the experiment on M14 melanoma, with MOLT-4 leukemia and in the experiment on OVCAR-5 ovarian was greater than 100 µM throughout. In the experiment on HOP-62 NSCLC, this compound gave a TGI greater than 100 µM.
